Tests used:
Assay in all cases: Test D controlled growth environment herbicide test, pre- and postemergence
Format in all cases: in vivo
[1] = system: blackgrass (Alopecurus myosuroides)
Method in brief: (§1)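 Species sown in silt loam and sprayed preemergence, or grown in peat-based medium to 2–18 cm (1- to 4-leaf stage) and sprayed postemergence, with compounds in non-phytotoxic solvent plus surfactant. Visual injury scored versus controls after 14–21 d in a controlled environment, 0 (no effect) to 100 (complete control).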

[2] = system: wheat, spring (spring wheat, Triticum aestivum)
Method in brief: as §1

kochia (Kochia scoparia) = system: kochia (Kochia scoparia)
Method in brief: as §1

[3] = system: chamomile (scentless chamomile, Matricaria inodora)
Method in brief: as §1

[4] = system: deadnettle (henbit deadnettle, Lamium amplexicaule)
Method in brief: as §1

[5] = system: field poppy (Papaver rhoeas)
Method in brief: as §1

[6] = system: bromegrass, downy (downy bromegrass, Bromus tectorum)
Method in brief: as §1

[7] = system: barley, spring (spring barley, Hordeum vulgare)
Method in brief: as §1

[8] = system: oilseed rape (Brassica napus)
Method in brief: as §1

[9] = system: canarygrass (Phalaris minor)
Method in brief: as §1

[10] = system: lambsquarters (Chenopodium album)
Method in brief: as §1

[11] = system: foxtail, green (green foxtail, Setaria viridis)
Method in brief: as §1

[12] = system: chickweed (common chickweed, Stellaria media)
Method in brief: as §1

[13] = system: galium (catchweed bedstraw, Galium aparine)
Method in brief: as §1

[14] = Postemergence, 31 g ai/ha, scale 0 to 100 (0 no effect, 100 complete control)
[15] = Postemergence, 125 g ai/ha, visual rating on scale 0 (no effect) to 100 (complete control), 14 to 21 d
[16] = Postemergence, 250 g ai/ha, scale 0 to 100 (0 no effect, 100 complete control)
[17] = Preemergence, 62 g ai/ha, scale 0 to 100 (0 no effect, 100 complete control)
[18] = Preemergence, 125 g ai/ha, scale 0 to 100 (0 no effect, 100 complete control)
[19] = Preemergence, 250 g ai/ha, scale 0 to 100, 0 no effect, 100 complete control
[20] = postemergence, 62 g ai/ha, scale 0 to 100, 0 no effect, 100 complete control

Cc1nn(C)c(=O)c(-c2c(C)sc3c(C)cc(Cl)cc23)c1O [Compound 35]
25: Plant response rating, Wheat, Spring [2, 15] | Kochia plant response rating (kochia (Kochia scoparia); [14]) | Plant response rating, Kochia (kochia (Kochia scoparia); [19]) | Plant response rating, Bromegrass, Downy [6, 15] | Plant response rating, Bromegrass, Downy [6, 20]
95: Blackgrass plant response rating [1, 19] | Oilseed Rape plant response rating [8, 14] | Plant response rating, Canarygrass [9, 18] | Plant response rating, Foxtail, Green [11, 15] | Plant response rating, Foxtail, Green [11, 16] | Plant response rating (scale of 0 to 100), Chickweed ([12]; Preemergence, 31 g ai/ha) | Plant response rating, Chickweed [12, 17] | Plant response rating, Galium [13, 15] | Plant response rating, Galium [13, 18]
5: Plant response rating, Wheat, Spring [2, 18] | Bromegrass, Downy plant response rating [6, 14]
98: Plant response rating, Oilseed Rape [8, 20] | Plant response rating, Canarygrass [9, 19] | Plant response rating, Lambsquarters [10, 15] | Plant response rating, Lambsquarters [10, 16] | Plant response rating, Lambsquarters [10, 17] | Galium plant response rating [13, 14] | Plant response rating, Galium [13, 20]
30: Blackgrass plant response rating [1, 14] | Plant response rating, Wheat, Spring [2, 16] | Plant response rating, Wheat, Spring [2, 19] | Plant response rating, Bromegrass, Downy [6, 16] | Plant response rating, Bromegrass, Downy [6, 17] | Plant response rating, Canarygrass [9, 20]
100: Chamomile plant response rating [3, 14] | Plant response rating, Chamomile [3, 15] | Plant response rating, Chamomile [3, 16] | Plant response rating (scale of 0 to 100), Chamomile ([3]; Preemergence, 31 g ai/ha) | Plant response rating, Chamomile [3, 17] | Plant response rating, Chamomile [3, 18] | Plant response rating, Chamomile [3, 19] | Plant response rating, Chamomile [3, 20] | Field Poppy plant response rating [5, 14] | Plant response rating, Field Poppy [5, 15] | Plant response rating, Field Poppy [5, 16] | Plant response rating, Field Poppy [5, 18] | Plant response rating, Field Poppy [5, 19] | Plant response rating, Field Poppy [5, 20] | Plant response rating, Oilseed Rape [8, 15] | Plant response rating, Oilseed Rape [8, 16] | Plant response rating, Oilseed Rape [8, 19] | Plant response rating, Lambsquarters [10, 18] | Plant response rating, Lambsquarters [10, 19] | Plant response rating, Lambsquarters [10, 20] | Plant response rating, Foxtail, Green [11, 19] | Plant response rating, Chickweed [12, 15] | Plant response rating, Chickweed [12, 16] | Plant response rating, Chickweed [12, 18] | Plant response rating, Chickweed [12, 19] | Plant response rating, Chickweed [12, 20] | Plant response rating, Galium [13, 16] | Plant response rating, Galium [13, 19]
70: Plant response rating, Kochia (kochia (Kochia scoparia); [16]) | Plant response rating, Canarygrass [9, 15] | Plant response rating (scale of 0 to 100), Lambsquarters ([10]; Preemergence, 31 g ai/ha)
10: Plant response rating, Barley, Spring [7, 15] | Plant response rating, Oilseed Rape [8, 17]
15: Wheat, Spring plant response rating [2, 14] | Deadnettle plant response rating [4, 14] | Plant response rating, Deadnettle [4, 17] | Plant response rating, Barley, Spring [7, 16]
75: Plant response rating, Blackgrass [1, 15] | Plant response rating (scale of 0 to 100), Blackgrass ([1]; Preemergence, 31 g ai/ha) | Plant response rating (scale of 0 to 100), Field Poppy ([5]; Preemergence, 31 g ai/ha) | Plant response rating (scale of 0 to 100), Canarygrass ([9]; Preemergence, 31 g ai/ha) | Lambsquarters plant response rating [10, 14] | Foxtail, Green plant response rating [11, 14]
45: Plant response rating, Foxtail, Green [11, 17]
20: Plant response rating, Wheat, Spring [2, 20] | Plant response rating, Kochia (kochia (Kochia scoparia); [18]) | Plant response rating, Kochia (kochia (Kochia scoparia); [20]) | Plant response rating, Deadnettle [4, 15] | Plant response rating, Deadnettle [4, 20] | Plant response rating (scale of 0 to 100), Bromegrass, Downy ([6]; Preemergence, 31 g ai/ha) | Canarygrass plant response rating [9, 14]
85: Plant response rating, Blackgrass [1, 16] | Plant response rating, Blackgrass [1, 17] | Plant response rating, Blackgrass [1, 18] | Plant response rating, Field Poppy [5, 17] | Plant response rating, Canarygrass [9, 17] | Plant response rating, Galium [13, 17]
50: Plant response rating (scale of 0 to 100), Foxtail, Green ([11]; Preemergence, 31 g ai/ha)
65: Plant response rating, Blackgrass [1, 20] | Plant response rating, Kochia (kochia (Kochia scoparia); [15]) | Plant response rating, Bromegrass, Downy [6, 19] | Plant response rating, Oilseed Rape [8, 18] | Plant response rating, Foxtail, Green [11, 18]
90: Plant response rating, Foxtail, Green [11, 20] | Chickweed plant response rating [12, 14]
0: Plant response rating (scale of 0 to 100), Wheat, Spring ([2]; Preemergence, 31 g ai/ha) | Plant response rating, Wheat, Spring [2, 17] | Plant response rating (scale of 0 to 100), Kochia (kochia (Kochia scoparia); Preemergence, 31 g ai/ha) | Plant response rating, Kochia (kochia (Kochia scoparia); [17]) | Plant response rating (scale of 0 to 100), Deadnettle ([4]; Preemergence, 31 g ai/ha) | Plant response rating, Barley, Spring [7, 14] | Plant response rating (scale of 0 to 100), Barley, Spring ([7]; Preemergence, 31 g ai/ha) | Plant response rating, Barley, Spring [7, 17] | Plant response rating, Barley, Spring [7, 18] | Barley, Spring plant response rating [7, 19] | Plant response rating, Barley, Spring [7, 20] | Plant response rating (scale of 0 to 100), Oilseed Rape ([8]; Preemergence, 31 g ai/ha)
80: Plant response rating, Deadnettle [4, 16] | Plant response rating, Deadnettle [4, 19] | Plant response rating, Canarygrass [9, 16] | Plant response rating (scale of 0 to 100), Galium ([13]; Preemergence, 31 g ai/ha)
55: Plant response rating, Deadnettle [4, 18] | Plant response rating, Bromegrass, Downy [6, 18]
